According to PMC11172384, “Specific Mutations Reverse Regulatory Effects of Adenosine Phosphates and Increase Their Binding Stoichiometry in CBS Domain-Containing Pyrophosphatase” (International Journal of Molecular Sciences, 2024):

What was measured:
[1] = target: T1, dhPPase (Desulfitobacterium hafniense CBS-PPase) (Desulfitobacterium hafniense, UniProt B8FP42, E126A); assay: isothermal titration calorimetry, single-binding-site model; details: read-out: KN
T1 construct: gene Dhaf_1515; full-length, tag-less, recombinant in E. coli BL21 (pET-42b); homotetramer
From the text: (§1) isothermal titration calorimetry, single-binding-site model on dhPPase (Desulfitobacterium hafniense CBS-PPase)

[2] = target: T2, dhPPase (Desulfitobacterium hafniense CBS-PPase) (Desulfitobacterium hafniense, UniProt B8FP42, K100A); assay: as above; details: read-out: KN
T2 construct: gene Dhaf_1515; full-length, tag-less, recombinant in E. coli BL21 (pET-42b); homotetramer
From the text: as §1

[3] = target: T3, dhPPase (Desulfitobacterium hafniense CBS-PPase) (Desulfitobacterium hafniense, UniProt B8FP42); assay: as above; details: read-out: KN
T3 construct: gene Dhaf_1515; full-length, tag-less, recombinant in E. coli BL21 (pET-42b); homotetramer
T3 sequence (B8FP42 1-544): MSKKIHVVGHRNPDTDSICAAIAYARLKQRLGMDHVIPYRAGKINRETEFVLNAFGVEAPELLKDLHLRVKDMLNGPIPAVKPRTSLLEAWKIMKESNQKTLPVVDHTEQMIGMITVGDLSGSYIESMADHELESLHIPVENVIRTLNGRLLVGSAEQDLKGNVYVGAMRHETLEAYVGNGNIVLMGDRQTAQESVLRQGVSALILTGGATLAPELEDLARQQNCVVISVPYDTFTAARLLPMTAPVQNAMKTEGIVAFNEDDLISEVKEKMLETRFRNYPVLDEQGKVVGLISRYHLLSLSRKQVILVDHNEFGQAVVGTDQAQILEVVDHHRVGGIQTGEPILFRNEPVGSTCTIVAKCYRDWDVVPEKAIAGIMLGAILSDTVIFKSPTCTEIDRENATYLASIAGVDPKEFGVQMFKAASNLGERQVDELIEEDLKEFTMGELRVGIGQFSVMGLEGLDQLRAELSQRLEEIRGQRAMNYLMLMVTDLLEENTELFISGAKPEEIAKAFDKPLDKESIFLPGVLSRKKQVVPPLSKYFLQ
From the text: as §1

[4] = target: T4, dhPPase (Desulfitobacterium hafniense CBS-PPase) (Desulfitobacterium hafniense, UniProt B8FP42, G118M); assay: as above; details: read-out: KN
T4 construct: gene Dhaf_1515; full-length, tag-less, recombinant in E. coli BL21 (pET-42b); homotetramer
From the text: as §1

[5] = target: T5, dhPPase (Desulfitobacterium hafniense CBS-PPase) (Desulfitobacterium hafniense, UniProt B8FP42, G118A); assay: as above; details: read-out: KN
T5 construct: gene Dhaf_1515; full-length, tag-less, recombinant in E. coli BL21 (pET-42b); homotetramer
From the text: as §1

[6] = target: T6, dhPPase (Desulfitobacterium hafniense CBS-PPase) (Desulfitobacterium hafniense, UniProt B8FP42, K95A); assay: as above; details: read-out: KN
T6 construct: gene Dhaf_1515; full-length, tag-less, recombinant in E. coli BL21 (pET-42b); homotetramer
From the text: as §1

[7] = target: T4, dhPPase (Desulfitobacterium hafniense CBS-PPase); assay: activation of PPi hydrolysis, continuous Pi assay, Hill fit; format: biochemical; details: read-out: Adenosine Phosphate and Parameter Value ^a / Ap4A / K
From the text: (§2) activation of PPi hydrolysis, continuous Pi assay, Hill fit on dhPPase (Desulfitobacterium hafniense CBS-PPase)

[8] = target: T7, dhPPase (Desulfitobacterium hafniense CBS-PPase) (Desulfitobacterium hafniense, UniProt B8FP42, V117T); assay: as above; format: biochemical; details: read-out: Adenosine Phosphate and Parameter Value ^a / Ap4A / K
T7 construct: gene Dhaf_1515; full-length, tag-less, recombinant in E. coli BL21 (pET-42b); homotetramer
From the text: as §2

[9] = target: T8, dhPPase (Desulfitobacterium hafniense CBS-PPase) (Desulfitobacterium hafniense, UniProt B8FP42, V117A); assay: as above; format: biochemical; details: read-out: Adenosine Phosphate and Parameter Value ^a / Ap4A / K
T8 construct: gene Dhaf_1515; full-length, tag-less, recombinant in E. coli BL21 (pET-42b); homotetramer
From the text: as §2

[10] = target: T2, dhPPase (Desulfitobacterium hafniense CBS-PPase); assay: as above; format: biochemical; details: read-out: Adenosine Phosphate and Parameter Value ^a / Ap4A / K
From the text: as §2

[11] = target: T3, dhPPase (Desulfitobacterium hafniense CBS-PPase); assay: continuous Pi assay; format: biochemical; details: pH 7.2, 25 °C, 5.23 mM MgCl2, 140 µM PPi

T2 sequence (B8FP42 entry or part of it K100A): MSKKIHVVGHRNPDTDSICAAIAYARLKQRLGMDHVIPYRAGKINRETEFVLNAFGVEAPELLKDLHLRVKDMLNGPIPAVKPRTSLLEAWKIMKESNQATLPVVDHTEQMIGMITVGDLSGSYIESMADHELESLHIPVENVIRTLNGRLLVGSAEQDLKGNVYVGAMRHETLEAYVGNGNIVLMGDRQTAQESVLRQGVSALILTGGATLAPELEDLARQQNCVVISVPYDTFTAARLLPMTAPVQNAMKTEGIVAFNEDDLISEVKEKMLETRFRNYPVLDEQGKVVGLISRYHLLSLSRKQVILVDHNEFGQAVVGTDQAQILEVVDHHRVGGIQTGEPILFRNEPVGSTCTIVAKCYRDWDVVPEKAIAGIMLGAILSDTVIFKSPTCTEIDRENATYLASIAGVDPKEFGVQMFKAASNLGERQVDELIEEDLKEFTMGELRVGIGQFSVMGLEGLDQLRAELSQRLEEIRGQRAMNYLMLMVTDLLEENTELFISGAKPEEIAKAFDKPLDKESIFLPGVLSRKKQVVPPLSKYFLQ
T4 sequence (B8FP42 entry or part of it G118M): as the sequence (B8FP42 entry or part of it K100A) above, with A100K, G118M counted along it
T5 sequence (B8FP42 entry or part of it G118A): as the sequence (B8FP42 entry or part of it K100A) above, with A100K, G118A counted along it
T8 sequence (B8FP42 entry or part of it V117A): as the sequence (B8FP42 entry or part of it K100A) above, with A100K, V117A counted along it
T6 sequence (B8FP42 entry or part of it K95A): as the sequence (B8FP42 entry or part of it K100A) above, with K95A, A100K counted along it
T1 sequence (B8FP42 entry or part of it E126A): as the sequence (B8FP42 entry or part of it K100A) above, with A100K, E126A counted along it
T7 sequence (B8FP42 entry or part of it V117T): as the sequence (B8FP42 entry or part of it K100A) above, with A100K, V117T counted along it

Compound: Nc1ncnc2c1ncn2[C@@H]1O[C@H](COP(=O)(O)OP(=O)(O)O)[C@@H](O)[C@H]1O [ADP]
- Kd [1]: 600 ± 100 nM
- Kd [2]: 6000 ± 2000 nM
- Kd [3]: 1000 ± 200 nM

Compound: Nc1ncnc2c1ncn2[C@@H]1O[C@H](COP(=O)(O)O)[C@@H](O)[C@H]1O [AMP]
- Kd [4]: 520 ± 70 nM
- Kd [5]: 4200 ± 600 nM
- Kd [2]: 1300 ± 200 nM
- Kd [6]: 4600 ± 700 nM
- Kd [3]: 800 ± 300 nM

Compound: Nc1ncnc2c1ncn2[C@@H]1O[C@H](COP(=O)(O)OP(=O)(O)OP(=O)(O)O)[C@@H](O)[C@H]1O [ATP]
- Kd [3]: 2100 ± 300 nM

Compound: Nc1ncnc2c1ncn2[C@@H]1O[C@H](COP(=O)(O)OP(=O)(O)OP(=O)(O)OP(=O)(O)OC[C@H]2O[C@@H](n3cnc4c(N)ncnc43)[C@H](O)[C@@H]2O)[C@@H](O)[C@H]1O [Ap4A]
- EC50 [7]: 28 ± 1 nM
- EC50 [8]: 1.3 ± 0.05 nM
- EC50 [9]: 120 ± 10 nM
- EC50 [10]: 11.5 ± 0.1 nM

Compound: O=P(O)(O)OP(=O)(O)O [PPi]
- continuous Pi assay [11]: The initial rates of PPi hydrolysis were measured using a continuous Pi assay
